# Data as given in ChEMBL document CHEMBL1144719, “1-(1-Arylethylidene)thiosemicarbazide derivatives: a new class of tyrosinase inhibitors” (Bioorg Med Chem, 2008).
# Molecular target: T1, Tyrosinase (Agaricus bisporus) (UniProt O42713)
# T1 sequence (whole entry): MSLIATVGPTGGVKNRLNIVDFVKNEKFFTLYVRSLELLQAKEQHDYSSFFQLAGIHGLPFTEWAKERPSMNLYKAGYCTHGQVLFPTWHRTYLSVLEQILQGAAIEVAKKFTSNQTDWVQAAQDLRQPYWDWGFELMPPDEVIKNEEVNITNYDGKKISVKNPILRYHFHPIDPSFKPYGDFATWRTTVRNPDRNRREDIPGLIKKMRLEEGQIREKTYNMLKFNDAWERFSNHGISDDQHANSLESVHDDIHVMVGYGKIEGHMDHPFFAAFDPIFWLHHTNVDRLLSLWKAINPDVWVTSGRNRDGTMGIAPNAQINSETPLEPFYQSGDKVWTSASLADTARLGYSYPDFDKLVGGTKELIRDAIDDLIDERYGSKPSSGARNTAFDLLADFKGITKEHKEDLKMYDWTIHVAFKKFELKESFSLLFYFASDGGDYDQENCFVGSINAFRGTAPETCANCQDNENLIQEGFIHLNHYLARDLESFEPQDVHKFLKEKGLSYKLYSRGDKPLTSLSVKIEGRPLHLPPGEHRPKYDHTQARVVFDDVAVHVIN
# Assay: Inhibition of mushroom tyrosinase at 0.10 mM
row,inhibition,SMILES
1,47%,NC(=S)N/N=C(/C(=O)c1ccccc1)c1ccccc1

# Molecular target: T2, Tyrosinase (Agaricus bisporus, UniProt O42713)
# T2 sequence (O42713 whole entry): T1 sequence (whole entry)
row,IC50,SMILES
1,0.31 µM,C/C(=N/NC(N)=S)c1ccc(O)cc1
2,22 µM,C/C(=N/NC(N)=S)c1c(O)cc(O)cc1O
3,100 µM,NC(=S)N/N=C(/C(=O)c1ccccc1)c1ccccc1
4,850 µM,CC(=O)c1ccccc1 [ACETOPHENONE]
5,55.5 µM,NC(=S)N/N=C(\c1ccccc1)C(O)c1ccccc1 (stereo unspecified)
6,0.15 µM,C/C(=N/NC(N)=S)c1ccc(/C(C)=N\NC(N)=S)cc1
7,2000 µM,COc1ccc(C(C)=O)cc1 [P-METHOXY-ACETOPHENONE]
8,0.54 µM,C/C(CCc1ccc(O)cc1)=N/NC(N)=S
9,0.58 µM,C/C(=N/NC(N)=S)c1ccc(O)cc1O
10,1 µM,C/C(=N/NC(N)=S)c1ccc(C(C)C)cc1
11,0.17 µM,C/C(=N/NC(N)=S)c1ccc(F)cc1
12,0.52 µM,C/C(=N/NC(N)=S)c1ccc(Br)cc1
13,0.14 µM,C/C(=N/NC(N)=S)c1cccs1
14,0.42 µM,COc1ccc(C/C(C)=N\NC(N)=S)cc1
15,0.34 µM,C/C(=N/NC(N)=S)c1ccccc1 [ACETOPHENONE-THIOSEMICARBAZONE]
16,0.82 µM,C/C(=N/NC(N)=S)c1cccnc1
17,0.27 µM,C/C(=N/NC(N)=S)c1ccc(C)cc1
18,0.11 µM,COc1ccc(/C(C)=N\NC(N)=S)cc1
19,0.88 µM,C/C(=N/NC(N)=S)c1cnccn1
20,410 µM,COc1ccc(/C=C/C(=O)O)cc1 [4-METHOXYCINNAMIC ACID]

row,SMILES,IC50
1,O=c1cccccc1O [TROPOLONE],0.4 µM
2,NNC(N)=S [THIOSEMICARBAZIDE],2000 µM
3,CC(=O)c1ccc(F)cc1,990 µM

# Molecular target: T1, Tyrosinase (Agaricus bisporus)
# Assay: Inhibition of mushroom tyrosinase at 2 mM
row,SMILES,inhibition
1,COc1ccc(C(C)=O)cc1 [P-METHOXY-ACETOPHENONE],47.2%
2,NNC(N)=S [THIOSEMICARBAZIDE],39.9%
